Experimental data published in US10744128B2, “6-(5-membered heteroaryl)isoquinolin-3-yl-(5-membered heteroaryl) carboxamides and preparation and use thereof” (Samumed, LLC, priority 2017, dated 2020).

Columns and labels:
[1] = molecular target: recombinant DYRK1A kinase (Homo sapiens (Human), UniProt Q13627); test: DYRK1A kinase assay (Ser/Thr 18 peptide Z-lyte, FRET); details: DYRK1A kinase, 30 μM ATP, one hour; method calls values IC50
Experimental: Each compound was dissolved in DMSO as a 10 mM stock and used to prepare compound source plates.
This is a non-radioactive assay using fluorescence resonance energy transfer (FRET) between coumarin and fluorescein to detect kinase activity which is represented as a ratio of coumarin emission/fluorescein emission.
The mixture was allowed to incubate with the representative compounds for one hour at room temperature. All reactions were performed in duplicate. Unphosphorylated (“0% Control”) and phosphorylated (“100% control”) forms of Ser/Thr 18 served as control reactions. Additionally, an 11-point dose-response curve of Staurosporine (1 uM top) was run to serve as a positive compound control.
After incubation, Development Reagent A was diluted in Development Buffer then added to the reaction and allowed to further incubate for one hour at room temperature.
Dose-response curves were generated and inhibitory concentration (IC50) values were calculated using non-linear regression curve fit in the Dotmatics' Studies Software (Bishops Stortford, UK).

recombinant GSK3β kinase = recombinant GSK3β kinase (Homo sapiens (Human), UniProt P49841); test: GSK3β kinase assay (Ser/Thr 09 peptide Z-lyte, FRET); assay type: biochemical; details: GSK3β kinase, 46 μM ATP, one hour; method calls values IC50
Sequence of recombinant GSK3β kinase (P49841 whole entry): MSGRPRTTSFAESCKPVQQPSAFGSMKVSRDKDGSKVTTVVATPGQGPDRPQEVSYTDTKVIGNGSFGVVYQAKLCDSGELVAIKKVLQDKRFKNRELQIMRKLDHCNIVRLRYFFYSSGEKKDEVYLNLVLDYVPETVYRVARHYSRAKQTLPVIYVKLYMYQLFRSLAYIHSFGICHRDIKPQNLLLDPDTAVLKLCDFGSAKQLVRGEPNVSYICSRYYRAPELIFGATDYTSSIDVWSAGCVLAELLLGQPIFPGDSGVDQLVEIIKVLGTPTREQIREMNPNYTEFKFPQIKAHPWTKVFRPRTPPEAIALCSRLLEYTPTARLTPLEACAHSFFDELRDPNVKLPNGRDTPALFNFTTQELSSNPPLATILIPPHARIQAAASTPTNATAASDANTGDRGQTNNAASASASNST

[2] = test system: Wnt-responsive promoter (Sp5-Luc reporter) in SW480 colon carcinoma cells; test: Sp5-Luc reporter gene screening assay for Wnt activity in SW480 cells; assay type: cell-based, human; details: Homo sapiens, 36 to 48 hours, luminescence
How it was run: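 SW480 cells stably carrying a luciferase reporter under an Sp5 promoter with eight TCF/LEF sites, plated at 4,000 cells/well in DMEM with 1% FBS and incubated 36 to 48 hours at 37° C. Luminescence normalized to DMSO-only cells; EC50 fitted by four-parameter nonlinear regression.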

[3] = test system: Tau phosphorylation at Ser396 (pSer396); test: Tau phosphorylation (pSer396) assay in SH-SY5Y cells; assay type: cell-based, human; details: Homo sapiens; SH-SY5Y cells, overnight (16-18 h), pSer396 Tau ELISA; read-out: EC50
Experimental: Two days before treatment, cells were seeded onto 96 well plates at 5×10^4 cells/well.
The above synthesized compounds were screened using the cell assay procedure to assess decrease Tau phosphorylation at Ser396 (pSer396) described below.
Cells were lysed with RIPA buffer complemented with phosphatase and protease inhibitors then lysates were spun down at 12,000 g for 10 min to remove any cellular debris.

[4] = test system: SW480 colon carcinoma cells; test: Cell viability assay (CellTiter-Glo) in SW480 cells; assay type: cell-based, human; details: Homo sapiens, 96 h, four days
[5] = test system: primary human fibroblasts derived from IPF patients (LL29 cells), α-smooth muscle actin; test: Inhibition of fibrotic process: αSMA in TGF-β1 treated LL29 fibroblasts; assay type: cell-based; details: Homo sapiens, Fibroblast, 96 h; LL29 cells, TGF-β1 20 ng/mL, 4 days, % cells positive for αSMA
How it was run: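 LL29 fibroblasts from IPF patients, in F12 medium with 1% FBS, treated with TGF-β1 plus compound; TGF-β1 with DMSO as positive control, DMSO alone as negative control. After 4 days' incubation, SYTOX green nucleic acid stain added at 1 μM final, 30 min at room temperature.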

IL-6 = IL-6 inhibition in LPS-stimulated human peripheral blood mononuclear cells (HTRF); assay type: cell-based; details: Homo sapiens, PBMC; for EC50: huPBMCs, LPS 50 ng/mL, 22 hours, IL-6 HTRF
How it was run: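 Fresh human PBMCs at 1×10e6 cells/mL in 1% FBS-RPMI were pretreated with compound for 2 h, then stimulated with 50 ng/mL E. coli 0111:B4 LPS for a further 22 h at 37 °C. IL-6 was measured by HTRF (665/620 nm ratio). Values were normalized to DMSO and fitted 4-parameter for EC50.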

| SMILES | EC50 [1] [nM] | EC50 (recombinant GSK3β kinase) [nM] | EC50 [2] [nM] | EC50 [3] [nM] | EC50 [4] [nM] | EC50 (IL-6) [nM] | EC50 [5] [nM] | inhibition at 10 µM (IL-6; read-out: percent inhibition at 10 μM) [%] |
| --- | --- | --- | --- | --- | --- | --- | --- | --- |
| Cn1cc(-c2ccc3cnc(NC(=O)c4csc(C5CCN(CCF)CC5)n4)cc3c2)cn1 [Compound 27, 2-(1-(2-Fluoroethyl)piperidin-4-yl)-N-(6-(1-methyl-1H-pyrazol-4-yl)isoquinolin-3-yl)thiazole-4-carboxamide] | 14 | 3600 | 300 | > 10000 | 3650 | > 10000 | 2520 | 34.5 |
| Cc1ncc(C(=O)Nc2cc3cc(-c4cnn(C5CCN(C)CC5)c4)ccc3cn2)s1 [Compound 28, 2-Methyl-N-(6-(1-(1-methylpiperidin-4-yl)-1H-pyrazol-4-yl)isoquinolin-3-yl)thiazole-5-carboxamide] | 24 | > 10000 | 1160 | 2100 | 340 | 9980 | 381 |  |
| Cc1ncc(-c2ccc3cnc(NC(=O)Cn4ccnc4)cc3c2)o1 [Compound 64, 2-(1H-imidazol-1-yl)-N-(6-(2-methyloxazol-5-yl)isoquinolin-3-yl)acetamide] | 4 | 9 | 1150 | 85 | 836 | 427 | 187 |  |

Now those with a lower EC50 [1], led by results:

| EC50 [1] [nM] | EC50 (recombinant GSK3β kinase) [nM] | EC50 [2] [nM] | EC50 [3] [nM] | EC50 [4] [nM] | EC50 (IL-6) [nM] | SMILES | EC50 [5] [nM] | inhibition at 10 µM (IL-6; read-out: percent inhibition at 10 μM) [%] |
| --- | --- | --- | --- | --- | --- | --- | --- | --- |
| 3 | 4180 | 55 | 64 | 105 | 277 | CC(C)OC(=O)N1CCC(n2cc(C(=O)Nc3cc4cc(-c5cnn(C)c5)ccc4cn3)cn2)CC1 [Compound 10, isopropyl 4-(4-((6-(1-methyl-1H-pyrazol-4-yl)isoquinolin-3-yl)carbamoyl)-1H-pyrazol-1-yl)piperidine-1-carboxylate] | 62 |  |
| 2 | 1040 | 27 | 99 | 38 | 114 | Cn1cc(-c2ccc3cnc(NC(=O)c4cnn(C5CCNCC5)c4)cc3c2)cn1 [Compound 2, N-(6-(1-methyl-1H-pyrazol-4-yl)isoquinolin-3-yl)-1-(piperidin-4-yl)-1H-pyrazole-4-carboxamide] | 93 |  |
| 2 | 450 | 110 | 193 | 23 | 2760 | Cc1ncc(C(=O)Nc2cc3cc(-c4cnc(C)n4C)ccc3cn2)s1 [Compound 62, N-(6-(1,2-Dimethyl-1H-imidazol-5-yl)isoquinolin-3-yl)-2-methylthiazole-5-carboxamide] | 644 |  |
| 1 | 780 | 11 | 27 | 59 | 504 | CC(C)N1CCC(n2cc(C(=O)Nc3cc4cc(-c5cnn(C)c5)ccc4cn3)cn2)CC1 [Compound 8, 1-(1-isopropylpiperidin-4-yl)-N-(6-(1-methyl-1H-pyrazol-4-yl)isoquinolin-3-yl)-1H-pyrazole-4-carboxamide] | 72 |  |
